Assay results reported in patent US9458188B2, “Efficient peptide couplings and their use in the synthesis and isolation of a cyclopenta (G) quinazoline trisodium salt” (BTG INTERNATIONAL LIMITED, priority 2010, dated 2016).

Tests used:
[1] = Chemical stability under acidic conditions; format: physicochemical; details: pH 5
Procedure: The reported chemistry was carried out on a very small scale, with no detailed analysis of the purity profile of the product 1.

[2] = test system: thymidilate synthase; details: read-out: IC50 for the enzyme (thymidilate synthase); cited from earlier work
[3] = target: T1, reduced folate carrier protein (RFCP) (Homo sapiens, UniProt P41440); details: not a substrate for RFCP; cited from earlier work
T1 sequence (P41440 1-591): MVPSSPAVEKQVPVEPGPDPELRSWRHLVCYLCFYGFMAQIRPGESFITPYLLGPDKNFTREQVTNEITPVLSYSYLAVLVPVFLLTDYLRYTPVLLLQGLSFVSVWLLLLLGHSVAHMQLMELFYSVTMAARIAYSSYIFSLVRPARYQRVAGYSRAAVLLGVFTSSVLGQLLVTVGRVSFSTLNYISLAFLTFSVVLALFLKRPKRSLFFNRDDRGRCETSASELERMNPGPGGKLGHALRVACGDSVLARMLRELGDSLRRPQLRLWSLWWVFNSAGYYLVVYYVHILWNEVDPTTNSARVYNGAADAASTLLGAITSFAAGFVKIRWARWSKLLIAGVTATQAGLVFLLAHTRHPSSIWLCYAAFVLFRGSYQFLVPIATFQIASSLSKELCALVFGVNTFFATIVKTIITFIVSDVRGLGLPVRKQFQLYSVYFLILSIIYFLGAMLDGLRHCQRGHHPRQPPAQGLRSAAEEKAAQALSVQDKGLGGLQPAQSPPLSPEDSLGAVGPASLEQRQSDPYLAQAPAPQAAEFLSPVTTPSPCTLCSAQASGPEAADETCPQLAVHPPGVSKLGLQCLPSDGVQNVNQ

[4] = target: folate receptor α (FRα) (Homo sapiens, UniProt P15328); details: read-out: Ki (affinity) for folate receptor α (FRα); cited from earlier work
Chain of folate receptor α (FRα) (P15328 25-234, species assumed): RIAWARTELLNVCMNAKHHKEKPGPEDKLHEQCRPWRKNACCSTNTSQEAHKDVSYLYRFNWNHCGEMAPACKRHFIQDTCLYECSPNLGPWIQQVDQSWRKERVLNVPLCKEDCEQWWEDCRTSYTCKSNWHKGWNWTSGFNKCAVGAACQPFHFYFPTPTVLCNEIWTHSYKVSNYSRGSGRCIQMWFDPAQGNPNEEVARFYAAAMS

[5] = target: T2, polyglutamoylation synthase enzyme (Homo sapiens, UniProt Q05932); details: cited from earlier work
T2 sequence (Q05932 43-587): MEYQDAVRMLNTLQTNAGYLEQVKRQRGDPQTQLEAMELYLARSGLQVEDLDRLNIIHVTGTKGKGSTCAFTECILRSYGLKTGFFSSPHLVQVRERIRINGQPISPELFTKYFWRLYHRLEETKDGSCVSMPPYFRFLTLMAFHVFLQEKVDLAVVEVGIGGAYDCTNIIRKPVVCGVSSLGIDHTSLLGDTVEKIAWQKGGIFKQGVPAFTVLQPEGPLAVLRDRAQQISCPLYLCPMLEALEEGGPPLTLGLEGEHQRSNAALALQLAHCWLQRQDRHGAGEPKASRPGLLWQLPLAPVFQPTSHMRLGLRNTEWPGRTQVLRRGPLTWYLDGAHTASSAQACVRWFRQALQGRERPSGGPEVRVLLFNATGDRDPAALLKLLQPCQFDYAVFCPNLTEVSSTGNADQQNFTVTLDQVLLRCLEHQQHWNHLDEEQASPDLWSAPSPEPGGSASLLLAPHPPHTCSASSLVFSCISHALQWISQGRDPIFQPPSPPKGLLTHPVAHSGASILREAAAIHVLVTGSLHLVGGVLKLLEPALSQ

SMILES	Stability in aqueous solution [1]	IC50 [2] [nM]	Ki [3] [nM]	Ki [4] [nM]	Substrate for the polyglutamoylation synthase enzyme [5]
C#CCN(c1ccc(C(=O)N[C@@H](CCC(=O)N[C@H](CCC(=O)O)C(=O)O)C(=O)O)cc1)[C@H]1CCc2cc3nc(CO)[nH]c(=O)c3cc21 [Compound 1, (2,R)-((4,S)-carboxy-4-(4,N-(((6S)-2-(hydroxymethyl)-4-oxo-3,4,7,8-tetrahydro-3H-cyclopenta[g]quinazolin-6-yl)-N-(prop-2-ynyl)amino)benzamido)butanamido)pentanedioic acid]	limited stability	–	–	–	–
C#CCN(c1ccc(C(=O)N[C@@H](CCC(=O)N[C@H](CCC(=O)[O-])C(=O)[O-])C(=O)[O-])cc1)[C@H]1CCc2cc3nc(CO)[nH]c(=O)c3cc21.[Na+].[Na+].[Na+] [Compound 2, (2,R)-((4,S)-carboxy-4-(4,N-(((6S)-2-(hydroxymethyl)-4-oxo-3,4,7,8-tetrahydro-3H-cyclopenta[g]quinazolin-6-yl)-N-(prop-2-ynyl)amino)benzamido)butanamido)pentanedioic acid trisodium salt]	–	3	> 250000	0.5	not a substrate
